{"source": "ChEMBL document CHEMBL3045400", "about": "“Synthesis of novel triazole derivatives as potent inhibitor of allene oxide synthase (CYP74A), a key enzyme in jasmonic acid biosynthesis” (J Pestic Sci, 2012)"}
{"biological_target": "T1, Allene oxide synthase, chloroplastic (Arabidopsis thaliana, UniProt Q96242)", "T1 sequence (Q96242 whole entry)": "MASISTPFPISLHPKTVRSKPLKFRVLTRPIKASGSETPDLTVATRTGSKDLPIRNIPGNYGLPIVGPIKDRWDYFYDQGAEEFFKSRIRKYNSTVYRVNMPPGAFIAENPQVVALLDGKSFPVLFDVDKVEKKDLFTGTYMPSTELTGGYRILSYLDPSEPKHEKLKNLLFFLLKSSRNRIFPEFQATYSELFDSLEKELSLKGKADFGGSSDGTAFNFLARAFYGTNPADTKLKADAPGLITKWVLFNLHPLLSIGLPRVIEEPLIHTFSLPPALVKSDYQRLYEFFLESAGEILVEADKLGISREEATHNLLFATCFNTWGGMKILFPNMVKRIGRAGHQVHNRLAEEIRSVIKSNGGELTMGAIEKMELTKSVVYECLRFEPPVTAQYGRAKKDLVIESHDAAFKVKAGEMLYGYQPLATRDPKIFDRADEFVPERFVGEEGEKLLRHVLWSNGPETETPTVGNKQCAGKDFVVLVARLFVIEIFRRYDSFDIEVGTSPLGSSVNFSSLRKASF", "test": "Inhibition of recombinant Arabidopsis thaliana allene oxide synthase activity by spectrophotometry", "units": {"IC50": "µM"}}
{"molecule": "COC(=O)CCCCCCCOC(Cn1cncn1)c1cccc(OC)c1", "note": "(stereo unspecified)", "IC50": 22.5}
{"molecule": "COC(=O)CCCCCCCOC(Cn1cncn1)c1ccc(Cl)cc1Cl", "note": "(stereo unspecified)", "IC50": 0.84}
{"molecule": "COC(=O)CCCCCCCOC(Cn1cncn1)c1ccc(Cl)c(Cl)c1", "note": "(stereo unspecified)", "IC50": 0.93}
{"molecule": "COC(=O)CCCCCCCOC(Cn1cncn1)c1ccc(OC)cc1", "note": "(stereo unspecified)", "IC50": 2.6}
{"molecule": "COC(=O)CCCCCCCOC(Cn1cncn1)c1ccccc1", "note": "(stereo unspecified)", "IC50": 1.6}
{"molecule": "COC(=O)CCCCCCCOC(Cn1cncn1)c1ccc2ccccc2c1", "note": "(stereo unspecified)", "IC50": 0.75}
{"molecule": "COC(=O)CCCCCCCOC(Cn1cncn1)c1ccc(Cl)cc1", "note": "(stereo unspecified)", "IC50": 1.2}
{"molecule": "COC(=O)CCCCCCCOC(Cn1cncn1)c1ccc(-c2ccccc2)cc1", "note": "(stereo unspecified)", "IC50": 54.3}
{"molecule": "COC(=O)CCCCCCCOC(Cn1ccnc1)c1ccc(Cl)cc1Cl", "note": "(stereo unspecified)", "IC50": 0.85}
{"molecule": "CCCCCCCOC(=O)CCCCCCCOC(Cn1ccnc1)c1ccc(Cl)cc1Cl", "note": "(stereo unspecified)", "IC50": 0.01}
{"molecule": "COC(=O)CCCCCCCOC(Cn1cncn1)c1ccc(F)cc1", "note": "(stereo unspecified)", "IC50": 14.5}
